Results from ChEMBL document CHEMBL5550165, “Novel quinoxaline analogs as telomeric G-quadruplex ligands exert antitumor effects related to enhanced immunomodulation” (Eur J Med Chem, 2024).
Calls of active or inactive are those of the source. The calls are words filed in the database; no cut-off is given here.

Tests used:
[1] = test system: Quadruplex DNA; experiment: Stabilization of G-quadruplex 5-FAM-telomeric24 DNA-TAMRA-3 (unknown origin) assessed as change in melting temperature incubated for 2 hrs by FRET assay; format: nucleic-acid assay
[2] = Cytotoxicity against human MCF-10A cells incubated for 24 hrs by CCK-8 reagent based spectrophotometric analysis; format: toxicity, cell-based
[3] = test system: MDA-MB-231; experiment: Cytotoxicity against human MDA-MB-231 cells incubated for 24 hrs by CCK-8 reagent based spectrophotometric analysis; format: functional, cell-based; settings: MDA-MB-231, 24 h
[4] = test system: 4T1; experiment: Cytotoxicity against mouse 4T1 cells incubated for 24 hrs by CCK-8 reagent based spectrophotometric analysis; format: functional, cell-based; settings: 4T1, 24 h
[5] = test system: MCF7; experiment: Cytotoxicity against human MCF7 cells incubated for 24 hrs by CCK-8 reagent based spectrophotometric analysis; format: functional, cell-based; settings: MCF7, 24 h
[6] = test system: U2OS; experiment: Cytotoxicity against human U2OS cells incubated for 24 hrs by CCK-8 reagent based spectrophotometric analysis; format: functional, cell-based
[7] = test system: BMDC; experiment: Induction of immunogenic cell death in BALB/c mouse BMDC cells co-cultured with mouse 4T1 cells assessed as increase in CD11c+ CD80+ CD86 cells maturation at 5 uM incubated for 24 hrs by flow cytometry (reference value: 69.4 %); format: functional
[8] = test system: 4T1; experiment: Antitumor activity against mouse 4T1 cells implanted in BALB/c mouse assessed as reduction in tumor weight at 2 mg/kg,ip every other day for 14 days; format: functional, organism-based; settings: time 14.0 day
[9] = Toxicity in BALB/c mouse implanted with mouse 4T1 cells assessed as decrease in body weight at 2 mg/kg,ip every other day for 14 days; format: organism-based; settings: in vivo, 336 h, time 14 day
[10] = Toxicity in BALB/c mouse implanted with mouse 4T1 cells assessed as decrease in heart weight at 2 mg/kg,ip every other day for 14 days; format: organism-based; settings: in vivo, 336 h, time 14 day
[11] = Toxicity in BALB/c mouse implanted with mouse 4T1 cells assessed as decrease in liver weight at 2 mg/kg,ip every other day for 14 days; format: organism-based; settings: in vivo, 336 h, time 14 day
[12] = Toxicity in BALB/c mouse implanted with mouse 4T1 cells assessed as decrease in spleen weight at 2 mg/kg,ip every other day for 14 days; format: organism-based; settings: in vivo, 336 h, time 14 day
[13] = Toxicity in BALB/c mouse implanted with mouse 4T1 cells assessed as decrease in lung weight at 2 mg/kg,ip every other day for 14 days; format: organism-based; settings: in vivo, 336 h, time 14 day
[14] = Toxicity in BALB/c mouse implanted with mouse 4T1 cells assessed as decrease in kidney weight at 2 mg/kg,ip every other day for 14 days; format: organism-based; settings: in vivo, 336 h, time 14 day
[15] = test system: 4T1; experiment: Antitumor activity against mouse 4T1 cells implanted in BALB/c mouse assessed as damage in tumor tissue at 2 mg/kg,ip every other day for 14 days by hematoxylin and eosin staining analysis; format: functional, organism-based; settings: time 14.0 day
[16] = test system: 4T1; experiment: Antitumor immunity against mouse 4T1 cells implanted in BALB/c mouse assessed as increase in proportion of CD4+ T cells in spleen at 2 mg/kg,ip every other day for 14 days by flow cytometry; format: functional, organism-based; settings: time 14.0 day
[17] = test system: 4T1; experiment: Antitumor immunity against mouse 4T1 cells implanted in BALB/c mouse assessed as increase in proportion of CD8+ T cells in spleen at 2 mg/kg,ip every other day for 14 days by flow cytometry; format: functional, organism-based; settings: time 14.0 day
[18] = test system: 4T1; experiment: Antitumor immunity against mouse 4T1 cells implanted in BALB/c mouse assessed as increase in proportion of CD4+ T cells in tumor at 2 mg/kg,ip every other day for 14 days by flow cytometry; format: functional, organism-based; settings: time 14.0 day
[19] = test system: 4T1; experiment: Antitumor immunity against mouse 4T1 cells implanted in BALB/c mouse assessed as increase in proportion of CD8+ T cells in tumor at 2 mg/kg,ip every other day for 14 days by flow cytometry; format: functional, organism-based; settings: time 14.0 day
[20] = test system: 4T1; experiment: Antitumor immunity against mouse 4T1 cells implanted in BALB/c mouse assessed as increase in proportion of CD4+ T cells in tumor at 2 mg/kg,ip every other day for 14 days by immunohistochemistry staining based analysis; format: functional, organism-based; settings: time 14.0 day
[21] = test system: 4T1; experiment: Antitumor immunity against mouse 4T1 cells implanted in BALB/c mouse assessed as increase in proportion of CD8+ T cells in tumor at 2 mg/kg,ip every other day for 14 days by immunohistochemistry staining based analysis; format: functional, organism-based; settings: time 14.0 day
[22] = test system: 4T1; experiment: Antitumor immunity against mouse 4T1 cells implanted in BALB/c mouse assessed as increase in serum IL-6 level at 2 mg/kg,ip every other day for 14 days by ELISA; format: functional, organism-based; settings: time 14.0 day
[23] = test system: 4T1; experiment: Antitumor immunity against mouse 4T1 cells implanted in BALB/c mouse assessed as increase in serum TNF-alpha level at 2 mg/kg,ip every other day for 14 days by ELISA; format: functional, organism-based; settings: time 14.0 day

Structure (SMILES) | ΔTm [1] [°C] | IC50 at 24 h [2] [µM] | IC50 [3] [µM] | IC50 [4] [µM] | IC50 [5] [µM] | IC50 [6] [µM] | also measured
CN(C)CCN1CCN(c2ccc(-c3nc4cc5ccccc5cc4nc3-c3ccc(N4CCN(CCN(C)C)CC4)cc3)cc2)CC1 | 5.7 | 3.7 | 5.2 | 4 | 8.4 | 13.3 | –
OCCN1CCN(c2ccc(-c3nc4cc5ccccc5cc4nc3-c3ccc(N4CCN(CCO)CC4)cc3)cc2)CC1 | 1.9 | 2.8 | 2.5 | 4.9 | 18.4 | 6.6 | –
OCCN1CCN(c2ccc(-c3nc4ccc(C(F)(F)F)cc4nc3-c3ccc(N4CCN(CCO)CC4)cc3)cc2)CC1 | 1.5 | 4.1 | 2 | 4.3 | 6.3 | 3.7 | –
CN(C)CCN1CCN(c2ccc(-c3nc4ccc(C(F)(F)F)cc4nc3-c3ccc(N4CCN(CCN(C)C)CC4)cc3)cc2)CC1 | 6.6 | 1.5 | 2 | 1.7 | 4.3 | 3.5 | –
CN(C)CCN1CCN(c2ccc(-c3nc4ccc(F)cc4nc3-c3ccc(N4CCN(CCN(C)C)CC4)cc3)cc2)CC1 | 8.3 | 2.7 | 2.9 | 2.3 | 6.1 | 3.6 | –
OCCN1CCN(c2ccc(-c3nc4ccc(F)cc4nc3-c3ccc(N4CCN(CCO)CC4)cc3)cc2)CC1 | 3.2 | 6.3 | 1.8 | 12.9 | 10.5 | 4.5 | –
COc1ccc2nc(-c3ccc(N4CCN(CCN(C)C)CC4)cc3)c(-c3ccc(N4CCN(CCN(C)C)CC4)cc3)nc2c1 | 5.6 | 3.4 | 2.3 | 5.3 | 9.5 | 6.9 | –
COc1ccc2nc(-c3ccc(N4CCN(CCO)CC4)cc3)c(-c3ccc(N4CCN(CCO)CC4)cc3)nc2c1 | 4.1 | 6.7 | 1.3 | 22.1 | 15.9 | 8 | –
CN(C)CCN(C)c1ccc(-c2nc3cc4ccccc4cc3nc2-c2ccc(N(C)CCN(C)C)cc2)cc1 | 7.9 | 1.3 | 1.4 | 2.9 | 1.9 | 1.5 | –
COc1cccc2c1C(=O)c1c(O)c3c(c(O)c1C2=O)C[C@@](O)(C(=O)CO)C[C@@H]3O[C@H]1C[C@H](N)[C@H](O)[C@H](C)O1 [DOXORUBICIN] | – | – | – | – | – | – | Activity [7]: 81.5%; Activity [8]: Active; Activity [9]: Toxic; Activity [10]: Toxic; Activity [11]: Toxic; Activity [12]: Toxic; Activity [13]: Toxic; Activity [14]: Toxic; Activity [15]: Active; Activity [16]: Active; Activity [17]: Active; Activity [18]: Active; Activity [19]: Active; Activity [20]: Active; Activity [21]: Active; Activity [22]: Active; Activity [23]: Active

Continued, in another order:

ΔTm [1] [°C] | Structure (SMILES) | IC50 at 24 h [2] [µM] | IC50 [3] [µM] | IC50 [4] [µM] | IC50 [5] [µM] | IC50 [6] [µM] | also measured
6 | CN(C)CCN(C)c1ccc(-c2nc3ccc(F)cc3nc2-c2ccc(N(C)CCN(C)C)cc2)cc1 | 8.8 | 3.1 | 5.6 | 4.2 | 3.1 | –
0.1 | COc1ccc2nc(-c3ccc(N(C)CCO)cc3)c(-c3ccc(N(C)CCO)cc3)nc2c1 | 24.1 | > 40 | > 40 | > 40 | > 40 | –
0.4 | CN(CCO)c1ccc(-c2nc3ccc(F)cc3nc2-c2ccc(N(C)CCO)cc2)cc1 | 18 | 33.2 | 31.6 | > 40 | > 40 | –
0.5 | CN(CCO)c1ccc(-c2nc3ccc(C(F)(F)F)cc3nc2-c2ccc(N(C)CCO)cc2)cc1 | 20.5 | > 40 | > 40 | > 40 | 19.3 | –
0.9 | CN(CCO)c1ccc(-c2nc3cc4ccccc4cc3nc2-c2ccc(N(C)CCO)cc2)cc1 | 11.1 | 20.9 | 36.4 | > 40 | > 40 | –
6.6 | COc1ccc2nc(-c3ccc(N(C)CCN(C)C)cc3)c(-c3ccc(N(C)CCN(C)C)cc3)nc2c1 | 13.7 | 6.2 | 9.4 | 5.8 | 8.8 | –
